Earlier results as cited in patent US20150119272A1, “DOSE-RESPONSE MEDICAL OUTCOME MODEL PREDICTOR SYSTEM AND METHOD” (ROYAL COLLEGE OF SURGEONS IN IRELAND, priority 2012, published 2015).
pKd: −log10 of the molar value.

Assays:
Bcl-(X)L = Bcl-(X)L (Homo sapiens, UniProt Q07817); settings: binding to Bcl-(X)L; taken from literature (Lessene et al. 2008)
Mcl-1 = Mcl-1 (Homo sapiens, UniProt Q07820); settings: binding to Mcl-1; taken from literature (Lessene et al. 2008)
Mcl-1, sequence (Q07820 whole entry, species assumed): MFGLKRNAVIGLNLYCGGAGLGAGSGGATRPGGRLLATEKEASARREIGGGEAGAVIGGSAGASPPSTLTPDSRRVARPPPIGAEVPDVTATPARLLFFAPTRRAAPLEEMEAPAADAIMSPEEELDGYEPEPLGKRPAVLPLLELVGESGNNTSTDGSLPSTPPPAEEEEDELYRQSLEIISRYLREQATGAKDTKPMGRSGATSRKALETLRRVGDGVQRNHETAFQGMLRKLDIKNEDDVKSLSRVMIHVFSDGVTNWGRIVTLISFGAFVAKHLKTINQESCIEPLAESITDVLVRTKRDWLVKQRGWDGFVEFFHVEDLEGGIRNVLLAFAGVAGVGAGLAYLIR

Bcl-(X)L, sequence (Q07817 whole entry, species assumed): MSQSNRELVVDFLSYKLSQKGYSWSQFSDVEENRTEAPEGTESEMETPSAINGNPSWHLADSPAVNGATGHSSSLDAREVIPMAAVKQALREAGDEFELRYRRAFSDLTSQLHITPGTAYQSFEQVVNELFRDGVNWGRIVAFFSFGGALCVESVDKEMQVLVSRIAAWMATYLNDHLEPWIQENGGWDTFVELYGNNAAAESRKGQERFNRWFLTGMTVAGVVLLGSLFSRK

SMILES: Cc1cc2c(C(C)C)c(O)c(O)c(C=O)c2c(O)c1-c1c(C)cc2c(C(C)C)c(O)c(O)c(C=O)c2c1O [Gossypol]
- pKd (Bcl-(X)L): 6.18
- pKd (Mcl-1): 7.60
